Test results taken from PubChem BioAssay AID284 (DTP/NCI, 2004).
Several values for one entry are separate records, joined by “and”; a condition that tells them apart may be missing. Equal entries are not always repeated. Toxic doses and inconclusive results are not listed.

Tested on: BDF1 mice, L1210/MTX-resistant leukemia ip, survival T/C
Assay: NCI In Vivo Anticancer Drug Screen. Data for tumor model L1210 Leukemia resistant to Methotrexate; NSC 740 (intraperitoneal) in B6D2F1 (BDF1) mice
Details: endpoint: mean survival time, higher = longer survival
Protocol: The antitumor activity of compounds was measured in mice bearing transplantable tumors. Survival or tumor size were measured and the results are expressed as the measurement made in the treated group (T) divided by the measurement made in the vehicle treated control group (C). The tumor model used in this assay is L1210 Leukemia resistant to Methotrexate; NSC 740 (intraperitoneal) in B6D2F1 (BDF1) mice

[1] = dose: 5.0 mg/kg/injection, schedule: Q01DX010 (ip), vehicle: saline
[2] = dose: 6.0 mg/kg/injection, schedule: Q01DX Z (ip), vehicle: carboxymethylcellulose (CMC)
[3] = dose: 8.0 mg/kg/injection, schedule: Q01DX Z (ip), vehicle: carboxymethylcellulose (CMC)
[4] = dose: 10.0 mg/kg/injection, schedule: Q01DX Z (ip), vehicle: carboxymethylcellulose (CMC)
[5] = dose: 16.0 mg/kg/injection, schedule: Q01DX010 (ip), vehicle: saline
[6] = dose: 50.0 mg/kg/injection, schedule: Q01DX Z (ip), vehicle: carboxymethylcellulose (CMC)
[7] = dose: 64.0 mg/kg/injection, schedule: Q01DX010 (ip), vehicle: saline
[8] = dose: 25.0 mg/kg/injection, schedule: Q01DX Z (ip), vehicle: saline
[9] = dose: 50.0 mg/kg/injection, schedule: Q01DX Z (ip), vehicle: saline
[10] = dose: 20.0 mg/kg/injection, schedule: Q01DX Z (ip), vehicle: carboxymethylcellulose (CMC)
[11] = dose: 12.5 mg/kg/injection, schedule: Q01DX010 (ip), vehicle: saline

## Cc1cc(N(CCCl)CCCl)ccc1N=Nc1ccccc1C(=O)O
dose: 0.37 mg/kg/injection, schedule: Q01DX Z (ip), vehicle: carboxymethylcellulose (CMC)
  T/C: 104 % of control
dose: 0.75 mg/kg/injection, schedule: Q01DX Z (ip), vehicle: carboxymethylcellulose (CMC)
  T/C: 124 % of control
dose: 3.0 mg/kg/injection, schedule: Q01DX Z (ip), vehicle: carboxymethylcellulose (CMC)
  T/C: 94 % of control
dose: 4.0 mg/kg/injection, schedule: Q01DX Z (ip), vehicle: carboxymethylcellulose (CMC)
  T/C: 109 % of control
[1]
  T/C: 123 % of control
[2]
  T/C: 124 % of control
[3]
  T/C: 104 % of control
dose: 10.0 mg/kg/injection, schedule: Q01DX010 (ip), vehicle: saline
  T/C: 107 % of control
[4]
  T/C: 97 % of control
dose: 20.0 mg/kg/injection, schedule: Q01DX010 (ip), vehicle: saline
  T/C: 88 % of control

## Nc1nc(SCc2ccccc2)c2[nH]cnc2n1
dose: 6.25 mg/kg/injection, schedule: Q01DX Z (ip), vehicle: carboxymethylcellulose (CMC)
  T/C: 121 % of control
dose: 8.0 mg/kg/injection, schedule: Q01DX010 (ip), vehicle: saline
  T/C: 105 % of control
dose: 12.5 mg/kg/injection, schedule: Q01DX Z (ip), vehicle: carboxymethylcellulose (CMC)
  T/C: 114 % of control
[5]
  T/C: 120 % of control
dose: 25.0 mg/kg/injection, schedule: Q01DX Z (ip), vehicle: carboxymethylcellulose (CMC)
  T/C: 107 % of control
[6]
  T/C: 105 % of control
dose: 62.5 mg/kg/injection, schedule: Q01DX Z (ip), vehicle: carboxymethylcellulose (CMC)
  T/C: 95 % of control
[7]
  T/C: 96 % of control

## CNC=O
dose: 125.0 mg/kg/injection, schedule: Q01DX Z (ip), vehicle: saline
  T/C: 117 % of control
dose: 150.0 mg/kg/injection, schedule: Q01DX Z (ip), vehicle: saline
  T/C: 104 % of control
dose: 250.0 mg/kg/injection, schedule: Q01DX Z (ip), vehicle: saline
  T/C: 111 % of control
dose: 300.0 mg/kg/injection, schedule: Q01DX Z (ip), vehicle: saline
  T/C: 156 % of control
dose: 500.0 mg/kg/injection, schedule: Q01DX Z (ip), vehicle: saline
  T/C: 112 % of control

## O=c1[nH]cc(F)c(=O)[nH]1
[8]
  T/C: 92 % of control and 101 % of control
[9]
  T/C: 87 % of control and 93 % of control and 98 % of control

## CN(C)c1ccc(/C=C\c2ccnc3ccccc23)cc1
dose: 1.5 mg/kg/injection, schedule: Q01DX010 (ip), vehicle: saline
  T/C: 97 % of control
dose: 3.0 mg/kg/injection, schedule: Q01DX010 (ip), vehicle: saline
  T/C: 103 % of control
dose: 6.0 mg/kg/injection, schedule: Q01DX010 (ip), vehicle: saline
  T/C: 99 % of control

## C[C@]12C=CC(=O)C=C1CC[C@@H]1[C@@H]2C(=O)C[C@@]2(C)[C@H]1CC[C@]2(O)C(=O)CO
dose: 25.0 mg/kg/injection, schedule: Q01DX010 (sc), vehicle: steriod suspending solution
  T/C: 90 % of control

## CCC(=O)O[C@H]1CC[C@H]2[C@@H]3CCC4=CC(=O)CC[C@]4(C)[C@H]3CC[C@]12C
dose: 125.0 mg/kg/injection, schedule: Q01DX Z (sc), vehicle: steriod suspending solution
  T/C: 100 % of control and 102 % of control
dose: 250.0 mg/kg/injection, schedule: Q01DX Z (sc), vehicle: steriod suspending solution
  T/C: 102 % of control
dose: 1000.0 mg/kg/injection, schedule: Q01DX Z (sc), vehicle: steriod suspending solution
  T/C: 86 % of control and 89 % of control

## CCCCn1cnc2c(=S)nc[nH]c21
[5]
  T/C: 114 % of control
dose: 32.0 mg/kg/injection, schedule: Q01DX010 (ip), vehicle: saline
  T/C: 97 % of control
[7]
  T/C: 105 % of control

## CN(N=O)C(N)=O
[1]
  T/C: 122 % of control
dose: 12.5 mg/kg/injection, schedule: Q01DX Z (ip), vehicle: saline
  T/C: 105 % of control
[8]
  T/C: 101 % of control
[9]
  T/C: 103 % of control

## Clc1ncnc2nc[nH]c12
dose: 7.5 mg/kg/injection, schedule: Q01DX010 (ip), vehicle: saline
  T/C: 90 % of control
dose: 15.0 mg/kg/injection, schedule: Q01DX010 (ip), vehicle: saline
  T/C: 90 % of control and 96 % of control
dose: 30.0 mg/kg/injection, schedule: Q01DX010 (ip), vehicle: saline
  T/C: 92 % of control and 100 % of control
dose: 60.0 mg/kg/injection, schedule: Q01DX010 (ip), vehicle: saline
  T/C: 96 % of control

## CN(C)C(=S)N=Nc1c(O)[nH]c2ccccc12
dose: 2.5 mg/kg/injection, schedule: Q01DX Z (ip), vehicle: carboxymethylcellulose (CMC)
  T/C: 110 % of control
dose: 5.0 mg/kg/injection, schedule: Q01DX Z (ip), vehicle: carboxymethylcellulose (CMC)
  T/C: 106 % of control
[4]
  T/C: 115 % of control
[10]
  T/C: 95 % of control
[6]
  T/C: 124 % of control
dose: 100.0 mg/kg/injection, schedule: Q01DX Z (ip), vehicle: carboxymethylcellulose (CMC)
  T/C: 86 % of control

## CCCNc1ncnc2[nH]ncc12
dose: 3.13 mg/kg/injection, schedule: Q01DX010 (ip), vehicle: saline
  T/C: 90 % of control and 91 % of control
dose: 6.25 mg/kg/injection, schedule: Q01DX010 (ip), vehicle: saline
  T/C: 100 % of control and 102 % of control
[11]
  T/C: 86 % of control and 97 % of control

## S=P(N1CCOCC1)(N1CC1)N1CC1
dose: 2.0 mg/kg/injection, schedule: Q01DX Z (ip), vehicle: carboxymethylcellulose (CMC)
  T/C: 92 % of control
[2]
  T/C: 93 % of control
[3]
  T/C: 92 % of control
[4]
  T/C: 96 % of control
[10]
  T/C: 95 % of control

## CCN(CC)c1ccc2cc3ccc(=[N+](CC)CC)cc-3oc2c1
dose: 1.0 mg/kg/injection, schedule: Q01DX010 (ip), vehicle: saline
  T/C: 100 % of control
dose: 2.0 mg/kg/injection, schedule: Q01DX010 (ip), vehicle: saline
  T/C: 91 % of control
dose: 4.0 mg/kg/injection, schedule: Q01DX010 (ip), vehicle: saline
  T/C: 98 % of control

## COS(C)(=O)=O
dose: 5.0 mg/kg/injection, schedule: Q01DX Z (ip), vehicle: saline
  T/C: 105 % of control
dose: 10.0 mg/kg/injection, schedule: Q01DX Z (ip), vehicle: saline
  T/C: 103 % of control
dose: 20.0 mg/kg/injection, schedule: Q01DX Z (ip), vehicle: saline
  T/C: 103 % of control
dose: 40.0 mg/kg/injection, schedule: Q01DX Z (ip), vehicle: saline
  T/C: 97 % of control

## CN(N=O)C(=O)NC(C=O)C(O)C(O)C(O)CO (centres undefined)
[11]
  T/C: 100 % of control
[9]
  T/C: 106 % of control
dose: 100.0 mg/kg/injection, schedule: Q01DX010 (ip), vehicle: saline
  T/C: 100 % of control
dose: 100.0 mg/kg/injection, schedule: Q01DX Z (ip), vehicle: saline
  T/C: 97 % of control

## Cc1c(O)ccc(=O)n1O
dose: 49.0 mg/kg/injection, schedule: Q01DX Z (ip), vehicle: other
  T/C: 98 % of control
dose: 73.0 mg/kg/injection, schedule: Q01DX Z (ip), vehicle: other
  T/C: 86 % of control
dose: 110.0 mg/kg/injection, schedule: Q01DX Z (ip), vehicle: other
  T/C: 114 % of control
dose: 165.0 mg/kg/injection, schedule: Q01DX Z (ip), vehicle: other
  T/C: 110 % of control
dose: 247.0 mg/kg/injection, schedule: Q01DX Z (ip), vehicle: other
  T/C: 96 % of control

## Nc1ccc(C(=O)NO)cc1
dose: 112.0 mg/kg/injection, schedule: Q01DX015 (ip), vehicle: carboxymethylcellulose (CMC)
  T/C: 109 % of control
dose: 225.0 mg/kg/injection, schedule: Q01DX015 (ip), vehicle: carboxymethylcellulose (CMC)
  T/C: 117 % of control
dose: 450.0 mg/kg/injection, schedule: Q01DX015 (ip), vehicle: carboxymethylcellulose (CMC)
  T/C: 100 % of control

## O=C1N(Cl)C(=O)C(c2ccc(Cl)cc2)(c2ccc(Cl)cc2)N1Cl
dose: 0.8 mg/kg/injection, schedule: Q01DX Z (ip), vehicle: methylcellulose (MC)
  T/C: 90 % of control
dose: 1.6 mg/kg/injection, schedule: Q01DX Z (ip), vehicle: methylcellulose (MC)
  T/C: 90 % of control
dose: 3.2 mg/kg/injection, schedule: Q01DX Z (ip), vehicle: methylcellulose (MC)
  T/C: 86 % of control and 98 % of control
